Assay [1] deals with T1, Thyroid hormone receptor beta (Homo sapiens, UniProt P10828).
T1 sequence (P10828 whole entry): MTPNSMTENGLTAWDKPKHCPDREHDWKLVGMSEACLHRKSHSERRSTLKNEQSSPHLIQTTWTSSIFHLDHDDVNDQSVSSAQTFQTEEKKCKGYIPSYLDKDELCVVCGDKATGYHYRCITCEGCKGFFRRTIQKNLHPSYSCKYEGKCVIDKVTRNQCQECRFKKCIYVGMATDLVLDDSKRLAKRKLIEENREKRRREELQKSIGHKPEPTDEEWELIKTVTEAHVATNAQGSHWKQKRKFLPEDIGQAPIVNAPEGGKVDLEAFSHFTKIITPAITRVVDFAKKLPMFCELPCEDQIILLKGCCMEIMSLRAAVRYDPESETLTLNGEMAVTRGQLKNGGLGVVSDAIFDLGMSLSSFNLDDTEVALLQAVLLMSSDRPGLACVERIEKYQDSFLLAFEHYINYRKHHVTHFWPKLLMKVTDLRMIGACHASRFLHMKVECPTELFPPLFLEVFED

In assay [2] the target is T2, Thyroid hormone receptor alpha (Homo sapiens, UniProt P10827).
T2 sequence (P10827 whole entry): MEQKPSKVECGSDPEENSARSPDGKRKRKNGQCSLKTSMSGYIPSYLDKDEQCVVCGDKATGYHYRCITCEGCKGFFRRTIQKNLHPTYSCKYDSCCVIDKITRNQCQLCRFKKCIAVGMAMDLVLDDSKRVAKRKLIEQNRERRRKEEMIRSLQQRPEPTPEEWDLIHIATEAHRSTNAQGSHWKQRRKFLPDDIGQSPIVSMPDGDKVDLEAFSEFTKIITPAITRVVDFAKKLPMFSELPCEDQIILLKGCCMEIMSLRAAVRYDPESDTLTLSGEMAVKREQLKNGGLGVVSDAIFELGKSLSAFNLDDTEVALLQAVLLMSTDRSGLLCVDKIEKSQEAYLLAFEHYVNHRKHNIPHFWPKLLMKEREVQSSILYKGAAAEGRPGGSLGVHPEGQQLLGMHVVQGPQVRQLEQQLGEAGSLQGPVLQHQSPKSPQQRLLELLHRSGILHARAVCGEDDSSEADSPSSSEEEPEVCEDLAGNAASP
The assay is described as follows: Half-maximum activation of human Thyroid hormone receptor alpha-1 (hTRalpha1).

For assay [3], the target named is T1, Thyroid hormone receptor beta. The assay is described as follows: Half-maximum activation of human Thyroid hormone receptor beta 1 (hTRbeta1).
In assay [4] the target is T2, Thyroid hormone receptor alpha.

A word on the Kd: it is the constant that tells how readily two partners part at equilibrium. The IC50 is the point on the concentration scale where inhibition reaches its midpoint. Lower therefore signals greater potency. As to `Cc1cc(OCC(=O)O)cc(C)c1Cc1cc(-c2ccc([N+](=O)[O-])cc2)c(O)c(C(C)C)c1`, the values for the Kd in assay [1] and in assay [4] were 35 nM and 200 nM, respectively. Also, the IC50 amounted to 5000 nM in assay [2] and 680 nM in assay [3].
`Cc1cc(OCC(=O)O)cc(C)c1Cc1cc(C#Cc2ccc(N)cc2)c(O)c(C(C)C)c1`: the Kd worked out at 90 nM in assay [1] and 330 nM in assay [4].
By EC50 is commonly meant the midpoint of the concentration-response curve. Low values mean an effect from little substance, high ones a need for much substance. As for `Cc1cc(OCC(=O)O)cc(C)c1Cc1cc(C#Cc2ccccc2)c(O)c(C(C)C)c1`, the Kd in assay [1] came to 37 nM; in assay [4], 490 nM. The EC50 in assay [3] turned out to be 500 nM.
The matching figures for `CCCCCc1ccc(C#Cc2cc(Cc3c(C)cc(OCC(=O)O)cc3C)cc(C(C)C)c2O)cc1`: 0.52 nM, 5.2 nM and 380 nM.
As for `Cc1cc(OCC(=O)O)cc(C)c1Cc1cc(C#Cc2ccc([N+](=O)[O-])cc2)c(O)c(C(C)C)c1`, the Kd in assay [1] turned out to be 20 nM; in assay [4], 93 nM. Moreover, the half-maximal inhibitory concentration (IC50) in assay [2] worked out at 950 nM; in assay [3], 370 nM.

These data come from ChEMBL document CHEMBL1135520, “Rational design and synthesis of a novel thyroid hormone antagonist that blocks coactivator recruitment” (J Med Chem, 2002).
